Reference: patent publication US6656694B2, “Method for identifying a ligand for a biological substrate” (Theravance, Inc., priority 2001, dated 2003)
pKd: −log10 of the molar value.

Key:
[1] = molecular target: T1, human cloned muscarinic receptor (M2), second binding site (Homo sapiens, UniProt P08172); assay: Screening of candidate compounds: effect on 3H-NMS binding in the presence of multibinding Compound A; settings: candidate 500 nM; Compound A 200 nM; 3H-NMS 10 nM; PBS pH 7.4; CHO membranes; 1 hour at 37° C.; B and C relative to each other
T1 sequence (P08172 1-466): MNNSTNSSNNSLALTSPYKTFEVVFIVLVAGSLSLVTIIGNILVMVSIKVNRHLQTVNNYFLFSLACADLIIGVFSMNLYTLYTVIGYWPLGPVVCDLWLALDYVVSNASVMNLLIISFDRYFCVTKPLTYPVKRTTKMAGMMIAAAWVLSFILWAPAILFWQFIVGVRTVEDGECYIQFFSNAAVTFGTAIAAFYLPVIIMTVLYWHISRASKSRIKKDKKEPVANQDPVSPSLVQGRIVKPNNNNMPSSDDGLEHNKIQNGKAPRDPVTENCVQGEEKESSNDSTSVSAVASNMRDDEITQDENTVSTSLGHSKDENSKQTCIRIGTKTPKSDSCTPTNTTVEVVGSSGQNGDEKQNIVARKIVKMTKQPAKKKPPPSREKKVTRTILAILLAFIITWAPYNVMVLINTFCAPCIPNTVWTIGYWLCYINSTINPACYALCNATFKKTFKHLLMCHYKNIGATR
Description: Into each well in a 96 well place, the following are added:
a) Compound A, such that the final concentration in the well is 200 nM (10 times the Kd of Compound A) in phosphate buffered saline at pH 7.4;
b) tritiated N-methyl scopalamine (^3H-NMS), such that the final concentration in each well is 10 nM (0.5 times the Kd of ^3H-NMS);
c) a candidate compound at a final concentration of 500 nM, the candidate compound being selected from amines including Compound B and Compound C (which are commercially available); [drawing 5]
(§1) d) membrane containing human cloned muscarinic receptor (prepared by expressing M2 coding plasmid in CHO cells using well-known procedures and reagents).
(§2) The 96 well plate is then incubated for 1 hour at 37° C. After incubation, the membranes are filtered to separate bound from unbound ^3H-NMS. Scintillant is then added, and the plate is placed in a counter to measure the radioactivity in each well.
The amount of radioactivity determined for each well is then compared to a pre-determined amount of radioactivity measured using the above procedure in the absence of a candidate compound. […]

[2] = molecular target: T2, human cloned muscarinic receptor (M2) (Homo sapiens, UniProt P08172); assay: Binding of Compound D to the receptor measured using 3H-NMS; settings: stated more potent than Compound A
T2 sequence (P08172 1-466): T1 sequence (P08172 1-466)
Description: as §1, §2
The binding of Compound D to the receptor is then measured using ^3H-NMS.

Compound | binding to the receptor (radioactivity of bound 3H-NMS observed) [1] | pKd [2]
CNC1CCN(Cc2c(OC)cccc2OC)CC1 [Compound C] | bind strongly | –
O=C(Nc1ccc2ccccc2c1)C1CC(O)CN1 (stereo not drawn) [Compound B] | bind weakly | –
COc1cccc(OC)c1CN1CCC(N(C)CCCCCCCN2CCC(OC(=O)Nc3ccccc3-c3ccccc3)CC2)CC1 [Compound D] | – | 8.70
